Source: patent publication US4681887A, “Pharmaceutical compositions with a neuroleptic action and process for preparing same” (Richter Gedeon Vegyeszeti Gyar Rt., priority 1985, dated 1987)

Columns and labels:
[1] = test system: apomorphine hypothermia; test: Investigation of the apomorphine hypothermia-reverting effect; type: in vivo, Hannover Wistar rats; settings: rats, 10 mg/kg p.o., apomorphine 5 mg/kg i.p.
Experimental: (§1) The neuroleptic effect of the compounds was shown by investigations on the central nervous system of Hannover Wistar rats and CFLP mice. The compounds to be tested were orally administered in a dose of 5 ml/kg of body-weight to rats or in a dose of 10 ml/kg of body-weight to mice, respectively at 60 minutes before beginning the experiment.
(§2) The compounds to be tested were suspended in TWEEN 80 and diluted to the desired concentration by adding physiological saline solution.
(§3) The results are expressed either as percentages, or ED50 values calculated by using the probit analysis are given together with the 95% fiducial (confidential) limits (J. T. Litchfield and F. Wilcoxon: J. Pharmacol. 96, 99 (1949)).
The method of A. Barnett et al. (Arch. Int. Pharmacodyn. Ther. 198, 242 (1972)) was used for this study.
The rectal temperature of rats (n=5) was determined by using an Ellab thermometer (E3) before administering the substances to be tested in a dose of 10 mg/kg. Thereafter, 5 mg/kg of apomorphine were intraperitoneally given and the temperature of the animals was hourly registered for 3 hours.

[2] = test system: catalepsy; test: Investigation of the cataleptogenic effect; type: in vivo, Hannover Wistar rats; settings: Rattus norvegicus, po; rats, observed hourly for 5 hours
Experimental: as §1, §2, §3
The method of G. Stille and H. Launer Arzneim.-forsch. 21, 252 (1971) was used for this study.
Male rats weighing 90 to 110 g (n=5) were treated with different doses of the compounds to be tested, then the number of the animals showing catalepsy was hourly observed for 5 hours.

[3] = test system: hypermotility induced by L-Dopa; test: Inhibition of the hypermotility induced by L-Dopa; type: in vivo, CFLP mice; settings: mice, 30 mg/kg p.o., nialamide 40 mg/kg and L-Dopa 100 mg/kg i.p., difference from control
Experimental: as §1, §2, §3
The method of N. P. Plotnikoff et al. ("The Thyroid Axis, Drugs and Behavior", Raven Press, N.Y., pp. 103-113 (1974)) was used for this study.
Male mice (n=15) weighing 18 to 21 g were intraperitoneally treated with 40 mg/kg of nialamide and after 60 minutes, the substances to be tested were administered in a dose of 30 mg/kg. Thirty minutes later, 100 mg/kg of L-Dopa were intraperitoneally administered. The locomotor activity of the animals was measured by using an LKB Animex DSE motimeter in each 30th minute for 2 hours. The results are given as the percentage of the difference from the control.

[4] = test system: asphyxial anoxia; test: Investigation of the asphyxial anoxia; type: in vivo, CFLP mice; settings: Mus musculus, po, 1 h; mice, survival time longer by 30% than control counted as protected
Experimental: as §1, §2, §3
The method of C. Caillard et al. (Life Sci. 16, 1607 (1975)) was used for this study.
Mice (n=5) of both sexes weighing 22 to 24 g were starved for 16 hours, then treated with 50 mg/kg dose of the substances to be tested. After 60 minutes, the animals were placed in tightly closed glass bottles of 100 ml volume and the survival time was registered.

[5] = test system: conditioned avoidance response; test: Inhibition of the conditioned avoidance response (CAR inhibition); type: in vivo, Hannover Wistar rats; settings: Rattus norvegicus, po, 1 h; rats, p.o., 60 minutes before experiment
Experimental: as §1, §2, §3
Male rats weighing 140 to 160 g were conditioned for 10 days in an automated six-channel shuttle box (D. Bovet et. al.: Neuropsychopharmacology, Vol. 2., p. 142 Elsevier Publishing House, Amsterdam, 1961).
Each one session consisted of 6 cycles; the time of a partial cycle was: 15 seconds for intersignal time, 15 seconds for light stimulus, 10 seconds for light stimulus and footshock (0.8 mA). […]

[6] = target: α1-adrenergic receptor; test: α1-adrenergic receptor binding (3H-prazosine, rat cortex); design: species or system Hannover Wistar rats; settings: for IC50: 3H-prazosine, rat cortex, 23° C., 30 minutes; for side-effect on the α1 receptors relative to chloropromazine: from IC50 on α1 receptors
Experimental: Hannover Wistar rats were decapitated, their cortex were prepared and homogenized in a 20-fold volume of a buffer solution (50 mmoles of TRIS HCl, at pH 8). The membrane was centrifuged at 45000 g twice for 15 minutes and then suspended in the buffer in a concentration of 30 ml/g (in a protein concentration of 1.7 to 1.8 mg/ml).
After an incubation at 23° C. for 30 minutes, the samples were filtered through a Whatman GF/B filter and washed 4 times with 4 ml of buffer solution each.
For the determination of the non-specific binding, 10 μmoles of phentolamine were used.
(§4) On using both above-mentioned receptor binding methods, a scintillation solution was applied onto the filter paper in the cuvet and the isotopic radioactivity was measured on the next day.

[7] = test system: amphetamine group toxicity; test: Investigation of the amphetamine group toxicity; type: in vivo, CFLP mice; settings: d-amphetamine 25 mg/kg i.p., 24 hours
Experimental: as §1, §2, §3
The method of C. D. Proctor et al. (Arch. Int. Pharmacodyn. Ther. 163, 74 (1966)) was used for this study.
The examination was carried out on mice of both sexes weighing 22 to 27 g (n=5). At the […], d-amphetamine in a dose of 25 mg/kg was intraperitoneally given to the animals tightly closed together (25 cm^2 /mouse) and the percentage of the perished animals was registered after 24 hours.

[8] = target: T1, D-2 receptors (Rattus norvegicus, UniProt P61169); test: D-2 receptor binding (3H-spiroperidol, rat striatum); design: species or system Hannover Wistar rats; settings: for D-2/α1 Selectivity ratio: ratio of IC50 D-2 to IC50 α1
T1 construct: Hannover Wistar rats were decapitated and the striatum from their cortex was prepared; from tissue; host or cells: striatum membranes of Hannover Wistar rats
T1 sequence (P61169 whole entry): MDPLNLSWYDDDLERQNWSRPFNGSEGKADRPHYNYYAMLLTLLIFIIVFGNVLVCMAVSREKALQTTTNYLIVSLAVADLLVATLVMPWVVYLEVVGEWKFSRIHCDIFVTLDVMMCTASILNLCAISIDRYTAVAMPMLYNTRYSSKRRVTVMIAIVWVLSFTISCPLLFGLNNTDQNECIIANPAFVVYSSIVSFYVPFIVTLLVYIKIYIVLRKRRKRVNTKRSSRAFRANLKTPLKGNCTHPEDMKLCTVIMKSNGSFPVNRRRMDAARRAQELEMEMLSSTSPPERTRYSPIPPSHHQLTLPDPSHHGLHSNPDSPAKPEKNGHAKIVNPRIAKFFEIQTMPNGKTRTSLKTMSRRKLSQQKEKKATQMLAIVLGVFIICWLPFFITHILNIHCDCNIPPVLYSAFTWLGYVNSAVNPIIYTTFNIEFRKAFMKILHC
Experimental: Hannover Wistar rats were decapitated and the striatum from their cortex was prepared. The striata were homogenized in a 10-fold volume of a cold buffer solution (50 mmoles of TRIS HCl, 120 mmoles of NaCl, 2 mmoles of KCl, 1 mmoles of MgCl2 and 5 mmoles of CaCl2, at pH 7.4) and centrifuged at 40000 g for 15 minutes. The thus-obtained sediment was suspended in the buffer in a concentration of 100 ml/g (in a protein concentration of 0.7 to 0.8 mg/ml).
After an incubation at 37° C. for 15 minutes, the samples were filtered through a Whatman GF/B filter and washed 2 times with 5 ml of buffer solution each.
For the determination of the non-specific binding, 1 μmole of (+)-butaclamol was used.
as §4

[9] = test system: central dopaminergic; settings: Acta Pharm. Suec. 1983, 111-119; cited from earlier work

Row | SMILES | Apomorphine hypothermia, difference of temperature change vs apomorphine (60 min.) [1] | Apomorphine hypothermia, difference of temperature change vs apomorphine (120 min.) [1] | ED50 [2] [mg/kg] | L-Dopa induced hypermot. inhibition % (60 min.) [3] [%] | L-Dopa induced hypermot. inhibition % (120 min.) [3] [%] | ED50 [4] [mg/kg] | ED50 [5] [mg/kg] | IC50 [6] [nM] | IC50 [8] [nM] | D-2/α1 Selectivity ratio [8] | central dopaminergic agonist activity [9] | side-effect on the α1 receptors relative to chloropromazine [6] | other results
1 | CN1C[C@H](CO)C=C2c3cccc4[nH]c(Br)c(c34)C[C@H]21.O=C(O)/C=C\C(=O)O [2-Bromolysergol maleate] | +1.9 °C | +2.4 °C | 10.8 | -60 | -65 | 35.6 | 2.7 | 24.1 | 76.5 | 3.2 | – | – | Amphetamine group tox., mice died (footnote *) ([7]; 20 mg/kg p.o.): 10%
2 | CCN(CC)C(=O)NC1C=C2c3cccc4[nH]c(Br)c(c34)CC2N(C)C1 (stereo not drawn) [2-Bromolysuride, reference compound] | – | – | 3.3 | – | – | – | – | – | – | – | – | – | –
3 | CN1C[C@H](CO)C=C2c3cccc4[nH]c(Cl)c(c34)C[C@H]21.O=C(O)/C=C\C(=O)O [2-Chlorolysergol maleate] | +0.9 °C | +1.1 °C | 13.6 | -47 | -50 | 39.8 | 3.4 | 45.4 | 5.3 | 0.12 | – | – | ED50 ([7]; Mus musculus, po, mice, p.o., read-out: Amphetamine group tox. ED50): 28.9 mg/kg
4 | CN1C[C@H](CO)C=C2c3cccc4[nH]c(Br)c(c34)C[C@H]21 [2-bromolysergol] | – | – | – | – | – | – | – | – | – | – | inactive | somewhat lower | –
5 | CN1C[C@H](CO)C=C2c3cccc4[nH]c(Cl)c(c34)C[C@H]21 [2-chlorolysergol] | – | – | – | – | – | – | – | – | – | – | inactive | one-third | D-2/α1 selectivity ratio relative to chloropromazine [8]: ten times lower; dopaminergic (D-2) activity relative to chloropromazine ([8]; from IC50 on D-2 receptors): three times as high
6 | CN(C)CCCN1c2ccccc2Sc2ccc(Cl)cc21 [Chloropromazine, reference compound] | – | – | – | – | – | – | – | 15.8 | – | – | – | – | –
